Our source for the EC50, ACE-inhibitory activity (%) of the HILIC-purified fraction M-P6 (enzyme activity; all fractions and ACE-inhibitory activity (%) of the HILIC-purified fraction VM-P7 (enzyme activity; all fractions values is PMC6315844, “Two Novel Multi-Functional Peptides from Meat and Visceral Mass of Marine Snail Neptunea arthritica cumingii and Their Activities In Vitro and In Vivo” (Marine Drugs, 2018).

Test [1] relates to ACE. Conditions: data recorded in biopep database; read-out: EC50 (ACE inhibition); cited from earlier work. The text has this:
ACE catalyzes the conversion of angiotensin I to angiotensin II, a potent vasoconstrictor, and promotes degradation of the vasodilator bradykinin [31]; thus, inhibition of ACE activity may help with reducing blood pressure. Because high-molecular-weight peptides cannot occupy the active site of ACE [32], ACE-inhibitory peptides are typically 2–30 amino acids in length.

Test [2] deals with T1, angiotensin-converting enzyme (from the rabbit lung) (rabbit) (UniProt P12822).
T1 sequence: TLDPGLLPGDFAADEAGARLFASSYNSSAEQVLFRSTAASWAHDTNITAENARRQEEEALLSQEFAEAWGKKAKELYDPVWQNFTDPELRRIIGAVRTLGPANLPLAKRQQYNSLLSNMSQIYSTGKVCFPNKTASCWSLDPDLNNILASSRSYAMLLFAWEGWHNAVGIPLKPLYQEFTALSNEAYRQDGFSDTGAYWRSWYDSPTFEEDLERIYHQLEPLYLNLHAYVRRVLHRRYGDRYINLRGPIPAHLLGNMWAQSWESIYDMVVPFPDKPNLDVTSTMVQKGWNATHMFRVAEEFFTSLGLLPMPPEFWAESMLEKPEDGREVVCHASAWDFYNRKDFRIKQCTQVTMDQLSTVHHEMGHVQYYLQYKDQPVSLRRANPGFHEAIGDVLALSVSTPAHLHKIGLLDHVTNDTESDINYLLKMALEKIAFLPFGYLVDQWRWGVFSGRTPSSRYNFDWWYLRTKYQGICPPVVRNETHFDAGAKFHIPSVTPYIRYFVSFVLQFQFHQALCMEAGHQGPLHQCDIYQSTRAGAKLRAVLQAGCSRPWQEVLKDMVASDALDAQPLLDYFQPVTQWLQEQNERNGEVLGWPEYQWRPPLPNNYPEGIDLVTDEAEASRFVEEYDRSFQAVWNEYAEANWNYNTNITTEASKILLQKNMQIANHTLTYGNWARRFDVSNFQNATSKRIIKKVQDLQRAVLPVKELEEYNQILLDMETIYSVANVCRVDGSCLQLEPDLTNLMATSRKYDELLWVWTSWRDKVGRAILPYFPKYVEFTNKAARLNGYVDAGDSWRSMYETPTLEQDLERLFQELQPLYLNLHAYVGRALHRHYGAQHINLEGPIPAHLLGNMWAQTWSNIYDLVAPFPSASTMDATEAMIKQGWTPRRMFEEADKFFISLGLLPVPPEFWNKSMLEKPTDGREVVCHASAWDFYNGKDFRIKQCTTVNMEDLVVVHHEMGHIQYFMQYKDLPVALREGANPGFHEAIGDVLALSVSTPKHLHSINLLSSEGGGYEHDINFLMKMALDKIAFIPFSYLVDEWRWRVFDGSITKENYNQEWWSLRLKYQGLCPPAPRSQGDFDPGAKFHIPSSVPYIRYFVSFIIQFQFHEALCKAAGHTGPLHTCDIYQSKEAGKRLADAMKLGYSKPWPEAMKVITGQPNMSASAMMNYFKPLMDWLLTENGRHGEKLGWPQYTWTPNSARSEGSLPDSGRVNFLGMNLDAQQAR

The EC50 is the concentration that produces a half-maximal response. On to YLYEIARR, for which the EC50 in test [1] is 86 µM. Consider YLYEIAR, for which, in test [1], the EC50 was 16 µM.

Consider YIPIQYVLSR, for which the EC50 in test [1] is 132 µM.

B1: … (Tyr-Ser-Gln-Leu-Glu-Asn-Glu-Phe-Asp-Arg) (peptide)
peptide: YSQLENEFDR
In test [2], B1 had an ACE-inhibitory activity (%) of the HILIC-purified fraction M-P6 (enzyme activity; all fractions at the same concentration) of 84.8%.

B2: YIAEDAER (Tyr-Ile-Ala-Glu-Asp-Ala-Glu-Arg) (peptide)
peptide: YIAEDAER
For the molecule B2, the ACE-inhibitory activity (%) of the HILIC-purified fraction VM-P7 (enzyme activity; all fractions at the same concentration) in test [2] came to 75%.
